Active and inactive are the calls of the source. The rule behind the calls is not given here.
Assays:
[1] = Cytotoxicity against human MRC5 cells assessed as inhibition of cell growth incubated for 72 hrs by SRB assay; type: toxicity, cell-based
[2] = system: PANC-1; assay: Cytotoxicity against human PANC-1 cells assessed as inhibition of cell growth incubated for 72 hrs by SRB assay; type: functional, cell-based; settings: PANC-1, 72 h
[3] = system: Gemcitabine-resistant PANC-1; assay: Cytotoxicity against human Gemcitabine-resistant PANC-1 cells assessed as inhibition of cell growth incubated for 72 hrs by SRB assay; type: functional, cell-based; settings: Gemcitabine-resistant PANC-1, 72 h
[4] = biological target: T1, Protein kinase C beta type (Homo sapiens, UniProt P05771); assay: Inhibition of recombinant full length N-terminal GST-tagged human PKCbeta1 expressed in baculovirus infected Sf9 insect cells using ERMRPRKRQGSVRRRV as substrate incubated for 60 mins in presence of ATP by ADP-glo reagent based luminometric analysis
[5] = Cytotoxicity against HPDE6c7 cells assessed as inhibition of cell growth incubated for 72 hrs by SRB assay; type: toxicity, cell-based; settings: human
[6] = biological target: T1, Protein kinase C beta type; assay: Binding affinity to PKCbeta1 in human Gemcitabine-resistant PANC-1 cells at 10 uM incubated for 1 hrs by streptavidin-biotin pull down assay; type: cell-based
Target sequence in this assay (P05771 2-671 limits assumed): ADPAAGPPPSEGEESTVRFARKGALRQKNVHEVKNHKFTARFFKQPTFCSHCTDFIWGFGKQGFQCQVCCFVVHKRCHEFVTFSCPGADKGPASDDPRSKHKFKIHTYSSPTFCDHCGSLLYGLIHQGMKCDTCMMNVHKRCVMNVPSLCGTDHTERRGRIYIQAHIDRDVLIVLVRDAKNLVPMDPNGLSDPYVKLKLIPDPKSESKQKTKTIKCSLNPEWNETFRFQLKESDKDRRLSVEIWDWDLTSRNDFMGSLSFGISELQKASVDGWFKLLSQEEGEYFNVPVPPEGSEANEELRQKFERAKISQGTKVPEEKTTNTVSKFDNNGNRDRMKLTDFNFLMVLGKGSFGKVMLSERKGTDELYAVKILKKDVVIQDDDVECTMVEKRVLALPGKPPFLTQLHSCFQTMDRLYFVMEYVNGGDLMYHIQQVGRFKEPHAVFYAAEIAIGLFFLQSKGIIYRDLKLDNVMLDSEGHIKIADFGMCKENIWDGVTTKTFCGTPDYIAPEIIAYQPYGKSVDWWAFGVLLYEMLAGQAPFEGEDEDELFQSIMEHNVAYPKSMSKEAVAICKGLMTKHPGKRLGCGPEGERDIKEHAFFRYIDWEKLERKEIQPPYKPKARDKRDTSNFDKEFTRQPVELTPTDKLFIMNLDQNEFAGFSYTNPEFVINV

[7] = system: PANC-1; assay: Antiproliferative activity against human PANC-1 cells transfected with Myc-DDK tagged pCMV6-PKCbeta1 assessed as reduction in cell viability at 1.25 to 40 uM incubated for 72 hrs by MTT assay; type: functional, cell-based; settings: dose 1.25-40 µM
[8] = system: Gemcitabine-resistant PANC-1; assay: Antitumor activity against human Gemcitabine-resistant PANC-1 cells xenografted in male BALB/c nude mouse assessed as reduction in tumor growth at 10 mg/kg, ip administered three times in a week for 20 days relative to control; type: functional; parameters: scale not given: the % may be the effect or the level left; settings: time 20 day
[9] = system: PANC-1; assay: Antiproliferative activity against human PANC-1 cells transfected with PKCbeta1 siRNA assessed as reduction in cell viability at 1.25 to 40 uM incubated for 72 hrs by MTT assay; type: functional, cell-based; settings: dose 1.25-40 µM
[10] = system: Gemcitabine-resistant PANC-1; assay: Antitumor activity against human Gemcitabine-resistant PANC-1 cells xenografted in male BALB/c nude mouse assessed as reduction in tumor growth at 5 mg/kg, ip administered three times in a week for 20 days; type: functional, organism-based; settings: time 20.0 day
[11] = Selectivity ratio of IC50 for cytotoxicity against human Gemcitabine-resistant PANC-1 cells assessed as inhibition of cell growth to IC50 for cytotoxicity against human PANC-1 cells assessed as inhibition of cell growth; type: functional

Compound	IC50 at 72 h [1] [µM]	IC50 [2] [µM]	other results
CN1c2ccc(Br)cc2C(=O)N2CCc3c([nH]c4ccccc34)[C@H]21	3.06	2.25	
CN1c2ccc(Cl)cc2C(=O)N2CCc3c([nH]c4ccccc34)[C@H]21	1.03	1.32	
CCCCCCn1c2c(c3ccccc31)CCN1C(=O)c3ccccc3N(C)[C@H]21	37.6	13.7	
O=C1c2ccccc2N[C@@H]2c3[nH]c4ccccc4c3CCN12	> 50	> 50	
COc1cc([C@@H]2c3cc4c(cc3[C@@H](O[C@@H]3O[C@@H]5CO[C@@H](C)O[C@H]5[C@H](O)[C@H]3O)[C@H]3COC(=O)[C@H]23)OCO4)cc(OC)c1O [ETOPOSIDE]	> 20	18.3	
CN1c2ccccc2C(=O)N2CCc3c([nH]c4ccc(OC(=O)c5ccccc5)cc34)[C@H]21	> 50	0.75	IC50 [3]: 0.13 µM; inhibition [4]: inactive; IC50 at 72 h [5]: 0.14 µM
O=C1c2ccccc2N(Cc2ccc(C(F)(F)F)cc2)[C@@H]2c3[nH]c4ccccc4c3CCN12	50	31.5	
CN1c2ccccc2C(=O)N2CCc3c([nH]c4ccc(Cl)cc34)[C@H]21	9.42	31.6	
CN1c2cccc(Cl)c2C(=O)N2CCc3c([nH]c4ccccc34)[C@H]21	< 0.4	8.8	
Cc1ccc(Cn2c3c(c4ccccc42)CCN2C(=O)c4ccccc4N(C)[C@H]32)cc1	> 50	> 50	
Cc1ccc(CN2c3ccccc3C(=O)N3CCc4c([nH]c5ccccc45)[C@H]32)cc1	> 50	11.3	
CC(=O)Oc1ccc2c(c1)c1c(n2Cc2cn(CCNC(=O)CCCC[C@@H]3SC[C@@H]4NC(=O)N[C@@H]43)nn2)C2N(CC1)C(=O)c1ccccc1N2C (some centres not stated)			Activity [6]: Active
O=C1c2ccccc2N(C(=O)C2CCCCC2)C2c3[nH]c4ccccc4c3CCN12 (single isomer, unassigned)	> 50	> 50	
CCCn1c2c(c3ccccc31)CCN1C(=O)c3ccccc3N(C)[C@H]21	> 50	38.4	
CN1c2ccccc2C(=O)N2CCc3c([nH]c4ccc(OCc5ccccc5)cc34)[C@H]21	> 50	10.7	
COc1ccc2c(c1)N(C)[C@@H]1c3[nH]c4ccccc4c3CCN1C2=O	3.6	31.6	
CC(=O)Oc1ccc2[nH]c3c(c2c1)CCN1C(=O)c2cccc(C)c2N(C)[C@H]31	< 0.4	< 0.4	
C=CCOc1ccc2[nH]c3c(c2c1)CCN1C(=O)c2ccccc2N(C)[C@H]31	> 50	6.7	
COc1cccc2c1C(=O)N1CCc3c([nH]c4ccccc34)[C@H]1N2C	12.7	12.6	
CN1c2ccccc2C(=O)N2CCc3c([nH]c4ccc(F)cc34)[C@H]21	4.71	9.32	
CCCOc1ccc2[nH]c3c(c2c1)CCN1C(=O)c2ccccc2N(C)[C@H]31	> 50	19	
CC(=O)Oc1ccc2[nH]c3c(c2c1)CCN1C(=O)c2cc(F)ccc2N(C)[C@H]31	< 0.4	< 0.4	

Compound	IC50 at 72 h [1] [µM]	IC50 [2] [µM]	other results
CCCN1c2ccccc2C(=O)N2CCc3c([nH]c4ccccc34)[C@H]21	< 0.4	< 0.4	
CN1c2ccccc2C(=O)N2CCc3c(n(Cc4ccccc4)c4ccccc34)[C@H]21	33.7	6.88	
CN1c2ccccc2C(=O)N2CCc3c([nH]c4ccccc34)[C@H]21	> 50	6.59	IC50 [4]: 0.151 µM
COc1ccc2[nH]c3c(c2c1)CCN1C(=O)c2ccccc2N(C)[C@H]31	10.8	11.1	
Cc1ccc2[nH]c3c(c2c1)CCN1C(=O)c2ccccc2N(C)[C@H]31	> 50	29.2	
CN1c2ccccc2C(=O)N2CCc3c([nH]c4ccc(O)cc34)[C@H]21	> 50	≤ 0.05	IC50 [3]: 0.25 µM; inhibition [4]: inactive; IC50 at 72 h [5]: 0.17 µM
C#CCOc1ccc2[nH]c3c(c2c1)CCN1C(=O)c2ccccc2N(C)[C@H]31	> 50	4	
CN1c2cc(Cl)ccc2C(=O)N2CCc3c([nH]c4ccccc34)[C@H]21	> 50	> 50	
Nc1ccn([C@@H]2O[C@H](CO)[C@@H](O)C2(F)F)c(=O)n1 [GEMCITABINE]		1.25	IC50 [3]: 64.5 µM; Activity [7]: inactive; Activity [8]: 72.15%; Activity [9]: Active; Activity [10]: inactive; Ratio IC50 [11]: 51.61; IC50 at 72 h [5]: 0.04 µM
O=C1c2ccccc2N(Cc2ccccc2)[C@@H]2c3[nH]c4ccccc4c3CCN12	> 50	> 50	
CN1c2ccccc2C(=O)N2CCc3c([nH]c4c([N+](=O)[O-])cc([N+](=O)[O-])cc34)[C@H]21	> 50	0.93	IC50 [3]: 1.31 µM; inhibition [4]: inactive; IC50 at 72 h [5]: 0.08 µM
CN1c2ccccc2C(=O)N2CCc3c(n(C)c4ccccc34)[C@H]21	> 50	> 50	
Cn1cc(C2=C(c3cn(C4CCN(Cc5ccccn5)CC4)c4ccccc34)C(=O)NC2=O)c2ccccc21 [ENZASTAURIN]		6.59	IC50 [3]: 2.12 µM; IC50 at 72 h [5]: 1.33 µM
CN1c2ccc(F)cc2C(=O)N2CCc3c([nH]c4ccccc34)[C@H]21	< 0.4	< 0.4	
COc1ccc(Cn2c3c(c4ccccc42)CCN2C(=O)c4ccccc4N(C)[C@H]32)cc1	> 50	47.2	
Cc1ccc2c(c1)C(=O)N1CCc3c([nH]c4ccccc34)[C@H]1N2C	7.36	2.02	
CN1c2ccccc2C(=O)N2CCc3c(n(Cc4ccc(Cl)cc4)c4ccccc34)[C@H]21	> 50	44	
CN1c2ccccc2C(=O)N2CCc3c(n(C(=O)c4ccccc4)c4ccccc34)[C@H]21	> 50	> 50	
COc1ccc2c(c1)C(=O)N1CCc3c([nH]c4ccccc34)[C@H]1N2C	3.33	1.05	
Cc1cccc2c1N(C)[C@@H]1c3[nH]c4ccccc4c3CCN1C2=O	< 0.4	< 0.4	
CN1c2ccccc2C(=O)N2CCc3c([nH]c4ccc([N+](=O)[O-])cc34)[C@H]21	> 50	4.45	

From ChEMBL document CHEMBL5584333, “Evo312: An Evodiamine Analog and Novel PKCβI Inhibitor with Potent Antitumor Activity in Gemcitabine-Resistant Pancreatic Cancer” (J Med Chem, 2024)
